The results in this text go back to EP4610269A1, “UROKINASE PLASMINOGEN ACTIVATOR SURFACE RECEPTOR (UPAR) LIGANDS FOR DIAGNOSTIC OR THERAPEUTIC USE” (3B Pharmaceuticals GmbH, priority 2024, dated 2025).

For assay [1], the target named is T1, uPAR-expressing HEC-265 human endometrial adenocarcinoma cells (Homo sapiens, UniProt Q03405).
T1 construct: Cell surface uPAR-expressing HEC-265 human endometrial adenocarcinoma cells; host or cells: HEC-265
Kind of assay: Competitive FACS binding assay. As to conditions: pIC50 category of FACS binding. Put shortly: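 Competitive displacement of a 10 nM biotinylated peptide from HEC-265 cells (1 h, 4 °C, PBS/1% BSA), detected via APC-streptavidin by flow cytometry. pIC50 from four-parameter logistic fit of median fluorescence versus concentration.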
Background: In flow cytometry, cells or beads pass a laser one at a time.

Assay [2] deals with T2, human uPAR (uPAR-Fc) (Homo sapiens, UniProt Q03405).
T2 construct: comprising amino acids Leu23-Arg303 according to UniProt entry Q03405.1; purchased R&D Systems 10378-UK-100
Kind of assay: Surface plasmon resonance (SPR) assay, single cycle kinetics. It is filed as binding. Particulars: pKD category for uPAR SPR activity assay, uPAR-Fc on Protein A-Chip, 25°C, read-out: pKD CAT (converted). Put shortly:
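uPAR-Fc (Leu23-Arg303 extracellular domains, human IgG1 Fc) captured on Protein A chip to ~2000 RU; single-cycle kinetics at 25°C in HEPES running buffer pH 7.4 with 0.1% DMSO. KD from double-referenced sensorgrams fitted to 1:1 Langmuir model, reported as pKD.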
(Surface plasmon resonance follows binding to a sensor surface in real time, without labels.)

The structures appear in SMILES notation. Where two headings read alike, the source gives them in different places. *1 amine or outer side, *2 acyl side, *3 side chain or, on linkers, in order; H or OH if unused. Where a SMILES comes first, the peptide text is derived from it. Bridges are numbered along the chain shown (N, C = ends). [ ]: non-standard residue; d: D form. The star is where a group is joined. DOTA = O=C(O)CN1CCN(CC(=O)O)CCN(CC(=O)*)CCN(CC(=O)O)CC1; Lys(Me3) = C[N+](C)(C)CCCC[C@H](N)C(=O)O; Pro(4R-NH2) = N[C@H]1CN[C@H](C(=O)O)C1; Glutaryl = O=C(CCCC(=O)[*:2])[*:1]; Ser(ΨH,HPro) = O=C(O)[C@@H]1COCN1; Hyp = O=C(O)[C@@H]1C[C@@H](O)CN1; 4Pal = N[C@@H](Cc1ccncc1)C(=O)O; Pentanoyl(4-Me) = CC(C)CCC(=O)*; Cit = NC(=O)NCCC[C@H](N)C(=O)O; NMeS = CN[C@@H](CO)C(=O)O; hCys = N[C@@H](CCS)C(=O)O; Ac6c = NC1(C(=O)O)CCCCC1; NMeA = CN[C@@H](C)C(=O)O; Thz = O=C(O)[C@@H]1CSCN1; Nva = CCC[C@H](N)C(=O)O; Pentanoyl = CCCCC(=O)*; CH2 = C([*:1])[*:2]; Sar = CNCC(=O)O A value given as a limit tells only on which side of the number the result lay.

T1 sequence (Q03405 23-335): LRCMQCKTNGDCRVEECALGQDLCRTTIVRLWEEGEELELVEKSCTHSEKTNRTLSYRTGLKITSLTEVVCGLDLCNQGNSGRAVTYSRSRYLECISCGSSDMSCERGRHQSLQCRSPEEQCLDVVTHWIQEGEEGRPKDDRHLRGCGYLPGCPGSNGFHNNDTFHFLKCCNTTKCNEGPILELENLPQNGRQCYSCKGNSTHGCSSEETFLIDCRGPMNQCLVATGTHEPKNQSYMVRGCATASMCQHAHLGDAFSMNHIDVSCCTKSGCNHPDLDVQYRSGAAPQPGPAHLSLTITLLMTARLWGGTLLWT
T2 sequence (Q03405 23-303): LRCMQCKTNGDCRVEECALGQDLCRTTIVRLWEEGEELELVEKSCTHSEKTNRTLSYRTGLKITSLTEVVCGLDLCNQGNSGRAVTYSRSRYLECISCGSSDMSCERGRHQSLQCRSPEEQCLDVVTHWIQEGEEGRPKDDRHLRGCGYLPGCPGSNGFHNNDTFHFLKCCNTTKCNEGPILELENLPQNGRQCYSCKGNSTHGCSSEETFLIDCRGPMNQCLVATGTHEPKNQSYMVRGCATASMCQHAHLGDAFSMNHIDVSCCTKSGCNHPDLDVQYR

On to `CCCCC(=O)N[C@H]1CSSC[C@@H](C(N)=O)NC(=O)[C@H](CCC)NC(=O)[C@H]([C@@H](C)CC)NC(=O)[C@H](CO)N(C)C(=O)[C@@H]2CCCN2C(=O)[C@H](Cc2ccccc2)NC(=O)[C@H](Cc2ccc(O)cc2)NC(=O)[C@H](CCCCNC(=O)CN2CCN(CC(=O)O)CCN(CC(=O)O)CCN(CC(=O)O)CC2)NC(=O)[C@H](CCCNC(N)=O)NC1=O` [UPAR-277, Pent-[Cys-Cit-Lys(DOTA)-Tyr-Phe-Pro-Nms-Ile-Nva-Cys]-NH2] (Pentanoyl-C[Cit]K(DOTA)YFP[NMeS]I[Nva]C-NH2; disulfide 1-10), for which the IC50 (commonly the concentration that inhibits the measured activity by half) in assay [1] is 39.8 to 100 nM. Besides, the Kd in assay [2] is 10 to 100 nM.

As for `CCCCC(=O)N[C@H]1CSCSC[C@@H](C(N)=O)NC(=O)[C@H](CCC)NC(=O)[C@H]([C@@H](C)CC)NC(=O)[C@@H]2C[C@@H](O)CN2C(=O)[C@@H]2CCCN2C(=O)[C@H](Cc2ccccc2)NC(=O)[C@H](Cc2ccc(O)cc2)NC(=O)[C@H](CCC(N)=O)NC(=O)[C@H](CCCNC(N)=O)NC1=O` [UPAR-215, Pent-[Smc-Cit-Gln-Tyr-Phe-Pro-Hyp-Ile-Nva-Cys]-NH2] (Pentanoyl-C[Cit]QYFP[Hyp]I[Nva]C-NH2; linker 1-10 via CH2), the IC50 in assay [1] was 12.6 to 31.6 nM. The Kd in assay [2] was 1.58 to 10 nM.

`CC[C@H](C)[C@@H]1NC(=O)[C@@H](C)NC(=O)[C@@H]2CCCN2C(=O)[C@H](Cc2ccccc2)NC(=O)[C@H](Cc2ccc(O)cc2)NC(=O)[C@H](CCC(N)=O)NC(=O)[C@H](CCCNC(N)=O)NC(=O)[C@@H](NC(=O)CCCC(=O)O)CSSC[C@@H](C(N)=O)NC(=O)[C@H](CC(C)C)NC1=O` [UPAR-359, Glutar-[Cys-Cit-Gln-Tyr-Phe-Pro-ala-Ile-Leu-Cys]-NH2] (Glutaryl-C[Cit]QYFP[dA]ILC-NH2; disulfide 1-10): in assay [1], the IC50 is ≥ 126 nM. Also, the Kd in assay [2] (single cycle kinetics) was > 100 nM.

As for `CC[C@H](C)[C@@H]1NC(=O)[C@@H](C)NC(=O)[C@@H]2COCN2C(=O)[C@H](Cc2ccccc2)NC(=O)[C@H](Cc2ccc(O)cc2)NC(=O)[C@H](CCC(N)=O)NC(=O)[C@H](CCCNC(N)=O)NC(=O)[C@@H](NC(=O)CCC(C)C)CSSC[C@@H](C(N)=O)NC(=O)[C@H](CC(C)C)NC1=O` [UPAR-321, iHex-[Cys-Cit-Gln-Tyr-Phe-Oxa-ala-Ile-Leu-Cys]-NH2] ({Pentanoyl(4-Me)}-C[Cit]QYF[Ser(ΨH,HPro)][dA]ILC-NH2; disulfide 1-10), the IC50 in assay [1] is ≤ 10 nM. The Kd in assay [2] is 1.58 to 10 nM.

As to `CCCCC(=O)N[C@H]1CSSC[C@@H](C(N)=O)NC(=O)[C@H](CCC)NC(=O)[C@H]([C@@H](C)CC)NC(=O)[C@@H]2C[C@@H](O)CN2C(=O)[C@@H]2CCCN2C(=O)[C@H](Cc2ccccc2)NC(=O)[C@H](Cc2ccc(O)cc2)NC(=O)[C@H](CCCCNC(=O)CN2CCN(CC(=O)O)CCN(CC(=O)O)CCN(CC(=O)O)CC2)NC(=O)[C@H](CCCC[N+](C)(C)C)NC1=O` [UPAR-153, Pent-[Cys-KMe3-Lys(DOTA)-Tyr-Phe-Pro-Hyp-Ile-Nva-Cys]-NH2] (Pentanoyl-C[Lys(Me3)]K(DOTA)YFP[Hyp]I[Nva]C-NH2; disulfide 1-10), the 50% inhibitory concentration (IC50) in assay [1] was ≤ 10 nM. For the same molecule, the Kd in assay [2] is < 1.58 nM.

Regarding `CCCCC(=O)N[C@H]1CSSCC[C@@H](C(N)=O)NC(=O)[C@H](CCC)NC(=O)[C@H]([C@@H](C)CC)NC(=O)[C@@H]2C[C@@H](O)CN2C(=O)[C@@H]2CCCN2C(=O)[C@H](Cc2ccccc2)NC(=O)[C@H](Cc2ccc(O)cc2)NC(=O)[C@H](CCC(N)=O)NC(=O)[C@H](CCCNC(=N)N)NC1=O` [UPAR-213, Pent-[Cys-Arg-Gln-Tyr-Phe-Pro-Hyp-Ile-Nva-Hcy]-NH2] (Pentanoyl-CRQYFP[Hyp]I[Nva][hCys]-NH2; disulfide 1-10), the IC50 in assay [1] is ≤ 10 nM. In assay [2], the Kd was 1.58 to 10 nM.

With `CCC[C@@H]1NC(=O)[C@H]([C@@H](C)CC)NC(=O)[C@@H]2C[C@@H](O)CN2C(=O)[C@@H]2CCCN2C(=O)[C@H](Cc2ccccc2)NC(=O)[C@H](Cc2ccc(O)cc2)NC(=O)[C@H](CCC(N)=O)NC(=O)[C@H](CCCNC(=N)N)NC(=O)[C@@H](NC(=O)C2(NC(C)=O)CCCCC2)CSSC[C@@H](C(N)=O)NC1=O` [UPAR-482, Ac-Egz-[Cys-Arg-Gln-Tyr-Phe-Pro-Hyp-Ile-Nva-Cys]-NH2] (Ac-[Ac6c]CRQYFP[Hyp]I[Nva]C-NH2; disulfide 2-11), the IC50 in assay [1] was ≤ 10 nM. The Kd in assay [2] (single cycle kinetics) was < 1.58 nM.

`CCCCC(=O)N[C@H]1CSSC[C@@H](C(N)=O)NC(=O)[C@H](CCC)NC(=O)[C@H]([C@@H](C)CC)NC(=O)[C@@H]2C[C@@H](O)CN2C(=O)[C@@H]2CCCN2C(=O)[C@H](Cc2ccccc2)NC(=O)[C@H](Cc2ccncc2)NC(=O)[C@H](CCCCNC(=O)CN2CCN(CC(=O)O)CCN(CC(=O)O)CCN(CC(=O)O)CC2)NC(=O)[C@H](CCCNC(N)=O)NC1=O` [UPAR-336, Pent-[Cys-Cit-Lys(DOTA)-Ppa-Phe-Pro-Hyp-Ile-Nva-Cys]-NH2] (Pentanoyl-C[Cit]K(DOTA)[4Pal]FP[Hyp]I[Nva]C-NH2; disulfide 1-10): the IC50 in assay [1] was ≤ 10 nM. For the same molecule, the Kd in assay [2] is < 1.58 nM.

With `CC[C@H](C)[C@@H]1NC(=O)[C@@H](C)NC(=O)[C@@H]2CSCN2C(=O)[C@H](Cc2ccccc2)NC(=O)[C@H](Cc2ccc(O)cc2)NC(=O)[C@H](CCC(N)=O)NC(=O)[C@H](CCCNC(N)=O)NC(=O)[C@@H](NC(=O)CCC(C)C)CSSC[C@@H](C(N)=O)NC(=O)[C@H](CC(C)C)NC1=O` [UPAR-375, iHex-[Cys-Cit-Gln-Tyr-Phe-Eaz-ala-Ile-Leu-Cys]-NH2] ({Pentanoyl(4-Me)}-C[Cit]QYF[Thz][dA]ILC-NH2; disulfide 1-10), the IC50 in assay [1] is ≤ 10 nM. The Kd in assay [2] (single cycle kinetics) was < 1.58 nM.

As to `CCCCC(=O)N[C@H]1CSSC[C@@H](C(N)=O)NC(=O)[C@H](CCC)NC(=O)[C@H]([C@@H](C)CC)NC(=O)[C@H](C)N(C)C(=O)[C@@H]2CCCN2C(=O)[C@H](Cc2ccccc2)NC(=O)[C@H](Cc2ccc(O)cc2)NC(=O)[C@H](CCCCNC(=O)CN2CCN(CC(=O)O)CCN(CC(=O)O)CCN(CC(=O)O)CC2)NC(=O)[C@H](CCCNC(N)=O)NC1=O` [UPAR-316, Pent-[Cys-Cit-Lys(DOTA)-Tyr-Phe-Pro-Nma-Ile-Nva-Cys]-NH2] (Pentanoyl-C[Cit]K(DOTA)YFP[NMeA]I[Nva]C-NH2; disulfide 1-10), the IC50 in assay [1] is 12.6 to 31.6 nM. Moreover, the Kd in assay [2] was 1.58 to 10 nM.

As for `CCCCC(=O)N[C@H]1CSSC[C@@H](C(N)=O)NC(=O)[C@H](CCC)NC(=O)[C@H]([C@@H](C)CC)NC(=O)CN(C)C(=O)[C@@H]2CCCN2C(=O)[C@H](Cc2ccccc2)NC(=O)[C@H](Cc2ccc(O)cc2)NC(=O)[C@H](CCCCNC(=O)CN2CCN(CC(=O)O)CCN(CC(=O)O)CCN(CC(=O)O)CC2)NC(=O)[C@H](CCCNC(N)=O)NC1=O` [UPAR-177, Pent-[Cys-Cit-Lys(DOTA)-Tyr-Phe-Pro-Nmg-Ile-Nva-Cys]-NH2] (Pentanoyl-C[Cit]K(DOTA)YFP[Sar]I[Nva]C-NH2; disulfide 1-10), the IC50 in assay [1] is ≤ 10 nM. In addition, in assay [2], the Kd is 1.58 to 10 nM.

`CCCCC(=O)N[C@H]1CSSC[C@@H](C(N)=O)NC(=O)[C@H](CCC)NC(=O)[C@H]([C@@H](C)CC)NC(=O)[C@@H]2C[C@@H](N)CN2C(=O)[C@@H]2CCCN2C(=O)[C@H](Cc2ccccc2)NC(=O)[C@H](Cc2ccc(O)cc2)NC(=O)[C@H](CCCNC(=N)N)NC(=O)[C@H](CCCNC(=N)N)NC1=O` [UPAR-313, Pent-[Cys-Arg-Arg-Tyr-Phe-Pro-Tap-Ile-Nva-Cys]-NH2] (Pentanoyl-CRRYFP[Pro(4R-NH2)]I[Nva]C-NH2; disulfide 1-10): the IC50 in assay [1] was ≤ 10 nM. The Kd in assay [2] was < 1.58 nM.
